From patent US20050240041A1, “Palm-based hydroxy fatty acid” (priority 2004, published 2005)
Entries after “also recorded” stand apart in the source; their conditions may differ.

Key:
[1] = cited from earlier work
[2] = in-vitro dermal (skin) irritection test
Procedure: (§1) The purified palm DHSA obtained in the laboratory was subjected to in-vitro and in-vivo dermal irritection test which confirmed that the compound is non irritant, and thus suitable as one of the ingredients used in cosmetic products. The details of the current invention is described below.
In the recrystallization technique, the crude DHSA is dissolved in the solvent with a slight heating of the mixture (about 50° C. to 60° C.). The solution is left to cool down gradually to ambient temperature and further cooled at about 10° C. to 15° C. to ensure maximum yield. The precipitate obtained is filtered and dried. The product referred to, as purified palm DHSA is a white powdery solid with waxy sensation. The non-irritancy properly was conducted through in vitro derived skin irritection study.

[3] = in-vivo dermal irritection test
From the text: as §1

CCCCCCCCC(O)C(O)CCCCCCCC(=O)O (stereo not drawn) [9,10-dihydroxystearic acid]
solubility in ether ([1]; ether): slightly soluble
solubility in hot alcohol or acetone ([1]; hot alcohol or acetone): soluble
solubility in water ([1]; water): insoluble

CCCCCCCCC(O)C(O)CCCCCCCC(=O)O (stereo not drawn) [purified DHSA, 9,10-dihydroxystearic acid]
irritancy ([2]; test not named at this place): non-irritant

CCCCCCCCC(O)C(O)CCCCCCCC(=O)O (stereo not drawn) [purified palm DHSA, 9,10-dihydroxystearic acid]
dermal irritancy ([2]; in vitro dermal/skin irritection study): non irritant; also recorded: non-irritant
dermal irritancy [3]: non irritant
